# Results taken from ChEMBL document CHEMBL1201862, “PubChem BioAssay data set” (2004).
#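 Protocol summary: plate cells (96-well), add compound at 5 concentrations, incubate 48 h, interpolate endpoints linearly. GI50: concentration for 50% inhibition of growth.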 The source made the active and inactive calls. No stated cut-off is given here; in the data, active = GI50 up to about 1.1 µM and inactive = higher.
# How the values were obtained:
# Assay in all cases: NCI anticancer screen, dose series, 48 h
# EKVX = test system: EKVX
# CAKI-1 = test system: CAKI-1
# LOX IMVI = test system: LOX IMVI
# OVCAR-3 = test system: OVCAR-3
# SW-620 = test system: SW-620
# HCT-116 = test system: HCT-116
# A498 = test system: A498
# OVCAR-4 = test system: OVCAR-4
# SK-MEL-5 = test system: SK-MEL-5
# NCI-H23 = test system: NCI-H23
# COLO 205 = test system: COLO 205
# OVCAR-5 = test system: OVCAR-5
# NCI-H522 = test system: NCI-H522
# UACC-62 = test system: UACC-62
# HOP-92 = test system: HOP-92
# SR = test system: SR
# SF-295 = test system: SF-295
# Malme-3M = test system: Malme-3M
# RXF 393 = test system: RXF 393
# DU-145 = test system: DU-145
# SK-MEL-2 = test system: SK-MEL-2
# SF-268 = test system: SF-268
# HCC 2998 = test system: HCC 2998
# MOLT-4 = test system: MOLT-4
# ACHN = test system: ACHN
# IGROV-1 = test system: IGROV-1
# BT-549 = test system: BT-549
# KM12 = test system: KM12
# MDA-MB-231 = test system: MDA-MB-231
# NCI/ADR-RES = test system: NCI/ADR-RES
# SN12C = test system: SN12C
# TK-10 = test system: TK-10
# U-251 = test system: U-251
# MCF7 = test system: MCF7
# MDA-MB-435 = test system: MDA-MB-435
# A549 = test system: A549
# M14 = test system: M14
# HL-60 = test system: HL-60
# UACC-257 = test system: UACC-257
# SNB-75 = test system: SNB-75
# HCT-15 = test system: HCT-15
# OVCAR-8 = test system: OVCAR-8
# NCI-H226 = test system: NCI-H226
# PC-3 = test system: PC-3
# 786-0 = test system: 786-0
# CCRF-CEM = test system: CCRF-CEM
# K562 = test system: K562
# SNB-19 = test system: SNB-19
# MDA-N = test system: MDA-N
# UO-31 = test system: UO-31
# SK-OV-3 = test system: SK-OV-3
# SF-539 = test system: SF-539
# T47D = test system: T47D
# NCI-H460 = test system: NCI-H460
# SK-MEL-28 = test system: SK-MEL-28
# Hs-578T = test system: Hs-578T
# HT-29 = test system: HT-29
# HOP-62 = test system: HOP-62
# RPMI-8226 = test system: RPMI-8226
structure (smiles),measurement,setting,value
CCCCCCCCOC(=O)C12Oc3ccc(-c4ccc5c(c4O)C(=O)C4=C(O)CC(C)C(O)C4(C(=O)OCCCCCCCC)O5)c(O)c3C(=O)C1=C(O)CC(C)C2O (stereo not drawn),GI50,EKVX,28.5 µM (inactive)
same,GI50,CAKI-1,25.2 µM (inactive)
same,GI50,LOX IMVI,25.5 µM (inactive)
same,GI50,OVCAR-3,24.2 µM (inactive)
same,GI50,SW-620,6.85 µM (inactive)
same,GI50,HCT-116,7.11 µM (inactive)
same,GI50,A498,23.5 µM (inactive)
same,GI50,OVCAR-4,19.6 µM (inactive)
same,GI50,SK-MEL-5,14.7 µM (inactive)
same,GI50,NCI-H23,10.2 µM (inactive)
same,GI50,COLO 205,20.9 µM (inactive)
same,GI50,OVCAR-5,24 µM (inactive)
same,GI50,NCI-H522,8.36 µM (inactive)
same,GI50,UACC-62,15.8 µM (inactive)
same,GI50,HOP-92,8.45 µM (inactive)
same,GI50,SR,4.26 µM (inactive)
same,GI50,SF-295,8.41 µM (inactive)
same,GI50,Malme-3M,32.4 µM (inactive)
same,GI50,RXF 393,2.7 µM (inactive)
same,GI50,DU-145,34.4 µM (inactive)
same,GI50,SK-MEL-2,7.87 µM (inactive)
same,GI50,SF-268,12.2 µM (inactive)
same,GI50,HCC 2998,28.9 µM (inactive)
same,GI50,MOLT-4,16.3 µM (inactive)
same,GI50,ACHN,5.61 µM (inactive)
same,GI50,IGROV-1,8.67 µM (inactive)
same,GI50,BT-549,9.59 µM (inactive)
same,GI50,KM12,10.8 µM (inactive)
same,GI50,MDA-MB-231,23.8 µM (inactive)
same,GI50,NCI/ADR-RES,30.7 µM (inactive)
same,GI50,SN12C,27.7 µM (inactive)
same,GI50,TK-10,15.5 µM (inactive)
same,GI50,U-251,4.06 µM (inactive)
same,GI50,MCF7,11.4 µM (inactive)
same,GI50,MDA-MB-435,9.86 µM (inactive)
same,GI50,A549,4.79 µM (inactive)
same,GI50,M14,26.2 µM (inactive)
same,GI50,HL-60,2.92 µM (inactive)
same,GI50,UACC-257,34.8 µM (inactive)
same,GI50,SNB-75,4.99 µM (inactive)
same,GI50,HCT-15,25 µM
same,GI50,OVCAR-8,9.46 µM (inactive)
same,GI50,NCI-H226,33.7 µM (inactive)
same,GI50,PC-3,23.2 µM (inactive)
same,GI50,786-0,19.1 µM (inactive)
same,GI50,CCRF-CEM,2.05 µM (inactive)
same,GI50,K562,2.93 µM (inactive)
same,GI50,SNB-19,8.85 µM (inactive)
same,GI50,MDA-N,18 µM (inactive)
same,GI50,UO-31,24.7 µM (inactive)
same,GI50,SK-OV-3,18.7 µM (inactive)
same,GI50,SF-539,4.21 µM (inactive)
same,GI50,T47D,16.2 µM (inactive)
same,GI50,NCI-H460,4.66 µM (inactive)
same,GI50,SK-MEL-28,18.2 µM (inactive)
same,GI50,Hs-578T,11.6 µM (inactive)
same,GI50,HT-29,27.2 µM (inactive)
O=C(NCc1cccnc1)C(=O)NCc1cccnc1,GI50,EKVX,> 100 µM (inactive)
same,GI50,CAKI-1,> 100 µM (inactive)
same,GI50,LOX IMVI,> 100 µM (inactive)
same,GI50,OVCAR-3,> 100 µM (inactive)
same,GI50,SW-620,> 100 µM (inactive)
same,GI50,HCT-116,> 100 µM (inactive)
same,GI50,A498,> 100 µM (inactive)
same,GI50,OVCAR-4,> 100 µM (inactive)
same,GI50,SK-MEL-5,> 100 µM (inactive)
same,GI50,NCI-H23,> 100 µM (inactive)
same,GI50,COLO 205,> 100 µM (inactive)
same,GI50,OVCAR-5,> 100 µM (inactive)
same,GI50,NCI-H522,> 100 µM (inactive)
same,GI50,UACC-62,> 100 µM (inactive)
same,GI50,HOP-92,> 100 µM (inactive)
same,GI50,SR,81.1 µM (inactive)
same,GI50,SF-295,> 100 µM (inactive)
same,GI50,Malme-3M,> 100 µM (inactive)
same,GI50,RXF 393,> 100 µM (inactive)
same,GI50,DU-145,> 100 µM (inactive)
same,GI50,SK-MEL-2,> 100 µM (inactive)
same,GI50,SF-268,> 100 µM (inactive)
same,GI50,HCC 2998,> 100 µM (inactive)
same,GI50,MOLT-4,0.149 µM (active)
same,GI50,ACHN,> 100 µM (inactive)
same,GI50,IGROV-1,> 100 µM (inactive)
same,GI50,BT-549,> 100 µM (inactive)
same,GI50,KM12,> 100 µM (inactive)
same,GI50,MDA-MB-231,> 100 µM (inactive)
same,GI50,NCI/ADR-RES,> 100 µM (inactive)
same,GI50,SN12C,> 100 µM (inactive)
same,GI50,TK-10,> 100 µM (inactive)
same,GI50,U-251,> 100 µM (inactive)
same,GI50,MCF7,> 100 µM (inactive)
same,GI50,MDA-MB-435,> 100 µM (inactive)
same,GI50,A549,> 100 µM (inactive)
same,GI50,M14,> 100 µM (inactive)
same,GI50,HL-60,27.4 µM (inactive)
same,GI50,UACC-257,> 100 µM (inactive)
same,GI50,SNB-75,> 100 µM (inactive)
same,GI50,HCT-15,> 100 µM
same,GI50,OVCAR-8,> 100 µM (inactive)
same,GI50,NCI-H226,> 100 µM (inactive)
same,GI50,PC-3,> 100 µM (inactive)
same,GI50,786-0,> 100 µM (inactive)
same,GI50,K562,> 100 µM (inactive)
same,GI50,HOP-62,> 100 µM (inactive)
same,GI50,SNB-19,> 100 µM (inactive)
same,GI50,MDA-N,> 100 µM (inactive)
same,GI50,UO-31,> 100 µM (inactive)
same,GI50,SK-OV-3,> 100 µM (inactive)
same,GI50,SF-539,> 100 µM (inactive)
same,GI50,T47D,> 100 µM (inactive)
same,GI50,NCI-H460,> 100 µM (inactive)
same,GI50,RPMI-8226,> 100 µM (inactive)
same,GI50,SK-MEL-28,> 100 µM (inactive)
same,GI50,Hs-578T,> 100 µM (inactive)
same,GI50,HT-29,> 100 µM (inactive)
C=C1CC[C@@]2(OC1)OC1C[C@H]3[C@@H]4CC=C5C[C@@H](O)CC(OC6OCC(OC(=O)[C@@H](O)[C@@H](C)CC)C(OC(C)=O)C6OC6OC(C)C(O)C(O)C6O)[C@]5(C)[C@H]4CC[C@]3(C)C1[C@@H]2C (stereo partly drawn),GI50,EKVX,2.34 µM (inactive)
same,GI50,CAKI-1,2.65 µM (inactive)
same,GI50,LOX IMVI,1.87 µM (inactive)
same,GI50,OVCAR-3,1.85 µM (inactive)
same,GI50,SW-620,2.1 µM (inactive)
same,GI50,HCT-116,1.65 µM (inactive)
same,GI50,A498,1.81 µM (inactive)
same,GI50,OVCAR-4,2.81 µM (inactive)
same,GI50,SK-MEL-5,1.97 µM (inactive)
same,GI50,NCI-H23,2.44 µM (inactive)
same,GI50,COLO 205,2.11 µM (inactive)
same,GI50,OVCAR-5,2.04 µM (inactive)
same,GI50,NCI-H522,1.76 µM (inactive)
same,GI50,UACC-62,1.77 µM (inactive)
same,GI50,HOP-92,3.3 µM (inactive)
same,GI50,SR,2.07 µM (inactive)
same,GI50,SF-295,1.75 µM (inactive)
same,GI50,Malme-3M,3.84 µM (inactive)
same,GI50,RXF 393,1.93 µM (inactive)
same,GI50,DU-145,2.07 µM (inactive)
same,GI50,SK-MEL-2,1.57 µM (inactive)
same,GI50,SF-268,2.06 µM (inactive)
same,GI50,HCC 2998,1.6 µM (inactive)
same,GI50,MOLT-4,1.7 µM (inactive)
same,GI50,ACHN,2.28 µM (inactive)
same,GI50,IGROV-1,2.56 µM (inactive)
same,GI50,BT-549,3.76 µM (inactive)
same,GI50,KM12,2.14 µM (inactive)
same,GI50,MDA-MB-231,1.75 µM (inactive)
same,GI50,NCI/ADR-RES,2.32 µM (inactive)
same,GI50,SN12C,2.25 µM (inactive)
same,GI50,TK-10,1.88 µM (inactive)
same,GI50,U-251,1.75 µM (inactive)
same,GI50,MCF7,1.84 µM (inactive)
same,GI50,MDA-MB-435,1.76 µM (inactive)
same,GI50,A549,2.21 µM (inactive)
same,GI50,M14,2.11 µM (inactive)
same,GI50,HL-60,1.81 µM (inactive)
same,GI50,UACC-257,2.21 µM (inactive)
same,GI50,SNB-75,2 µM (inactive)
same,GI50,HCT-15,1.91 µM
same,GI50,OVCAR-8,2.16 µM (inactive)
same,GI50,NCI-H226,2.64 µM (inactive)
same,GI50,PC-3,1.67 µM (inactive)
same,GI50,786-0,1.82 µM (inactive)
same,GI50,CCRF-CEM,1.53 µM (inactive)
same,GI50,K562,2.01 µM (inactive)
same,GI50,SNB-19,1.96 µM (inactive)
same,GI50,MDA-N,1.92 µM (inactive)
same,GI50,UO-31,2.4 µM (inactive)
same,GI50,SK-OV-3,1.83 µM (inactive)
same,GI50,SF-539,2.31 µM (inactive)
same,GI50,T47D,4.78 µM (inactive)
same,GI50,NCI-H460,1.72 µM (inactive)
same,GI50,RPMI-8226,2.09 µM (inactive)
same,GI50,SK-MEL-28,2.2 µM (inactive)
same,GI50,Hs-578T,3.4 µM (inactive)
same,GI50,HT-29,2.82 µM (inactive)
